Source: patent US6376497B1, “Antifungal azole derivatives having a fluorinated vinyl group and process for preparing same” (Korea Research Institute of Chemical Technology, priority 1999, dated 2002)

How the values were obtained:
Assay in all cases: In vitro antifungal activity, microbroth dilution MIC
Format in all cases: cell-based
[1] = test system: Torulopsis glabrata B. 16205; settings: 4 to 48 hours; for Minimal inhibitory concentration (MIC): T. glabrata B. 16205, RPMI-1640, 35° C.; for Minimal inhibitory concentration(MIC), T. glabrata B. 16205: RPMI-1640, 35° C., no growth observed
In short: (§1)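 Broth microdilution adapted from NCCLS M27, in RPMI-1640 with 0.165 M MOPS, pH 7.0. Yeast or mould inoculum at 2×10^3 CFU/ml was mixed 1:1 with DMSO-derived compound solutions (200 to 0.10 μg/ml before mixing) and incubated at 35 °C for 4 to 48 h. MIC was the concentration showing no growth.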

[2] = test system: Candida albicans IFO. 1385; settings: 4 to 48 hours; for Minimal inhibitory concentration (MIC): C. albicans IFO. 1385, RPMI-1640, 35° C.; for Minimal inhibitory concentration(MIC), C. albicans IFO. 1385: RPMI-1640, 35° C., no growth observed
In short: as §1

[3] = test system: Cryptococcus neoformans IFM. 40092; settings: 4 to 48 hours; for Minimal inhibitory concentration (MIC): Cry. neoformans IFM. 40092, RPMI-1640, 35° C.; for Minimal inhibitory concentration(MIC), Cry. neoformans IFM. 40092: RPMI-1640, 35° C., no growth observed
In short: as §1

[4] = test system: Candida albicans C1-2; settings: 4 to 48 hours; for Minimal inhibitory concentration (MIC): C. albicans C1-2, RPMI-1640, 35° C.; for Minimal inhibitory concentration(MIC), C. albicans C1-2: RPMI-1640, 35° C., no growth observed
In short: as §1

[5] = test system: Aspergillus niger A. 16404; settings: 4 to 48 hours; for Minimal inhibitory concentration (MIC): A. niger A. 16404, RPMI-1640, 35° C.; for Minimal inhibitory concentration(MIC), A. niger A. 16404: RPMI-1640, 35° C., no growth observed
In short: as §1

[6] = test system: Trichophyton mentagrophytes B. 32663; settings: 4 to 48 hours; for Minimal inhibitory concentration (MIC): T. mentagrophytes B. 32663, RPMI-1640, 35° C.; for Minimal inhibitory concentration(MIC), T. mentagrophytes B. 32663: RPMI-1640, 35° C., no growth observed
In short: as §1

[7] = test system: Candida tropicalis A. 13803; settings: 4 to 48 hours; for Minimal inhibitory concentration (MIC): C. tropicalis A. 13803, RPMI-1640, 35° C.; for Minimal inhibitory concentration(MIC), C. tropicalis A. 13803: RPMI-1640, 35° C., no growth observed
In short: as §1

[8] = test system: Cryptococcus neoformans B. 42419; settings: 4 to 48 hours; for Minimal inhibitory concentration (MIC): Cry. neoformans B. 42419, RPMI-1640, 35° C.; for Minimal inhibitory concentration(MIC), Cry. neoformans B. 42419: RPMI-1640, 35° C., no growth observed
In short: as §1

[9] = test system: Candida pseudotropicalis K. 11658; settings: 4 to 48 hours; for Minimal inhibitory concentration (MIC): C. pseudotropicalis K. 11658, RPMI-1640, 35° C.; for Minimal inhibitory concentration(MIC), C. pseudotropicalis K. 11658: RPMI-1640, 35° C., no growth observed
In short: as §1

[10] = test system: Candida krusei K. 11655; settings: 4 to 48 hours; for Minimal inhibitory concentration (MIC): C. krusei K. 11655, RPMI-1640, 35° C.; for Minimal inhibitory concentration(MIC), C. krusei K. 11655: RPMI-1640, 35° C., no growth observed
In short: as §1

[11] = test system: Candida albicans A. 10231; settings: 4 to 48 hours; for Minimal inhibitory concentration (MIC): C. albicans A. 10231, RPMI-1640, 35° C.; for Minimal inhibitory concentration(MIC), C. albicans A. 10231: RPMI-1640, 35° C., no growth observed
In short: as §1

[12] = test system: Candida parapsitosis A. 7330; settings: 4 to 48 hours; for Minimal inhibitory concentration (MIC): C. parapsitosis A. 7330, RPMI-1640, 35° C.; for Minimal inhibitory concentration(MIC), C. parapsitosis A. 7330: RPMI-1640, 35° C., no growth observed
In short: as §1

[13] = test system: Aspergillus furnigatus B. 19119; settings: 4 to 48 hours; for Minimal inhibitory concentration (MIC): A furnigatus B. 19119, RPMI-1640, 35° C.; for Minimal inhibitory concentration(MIC), A furnigatus B. 19119: RPMI-1640, 35° C., no growth observed
In short: as §1

[14] = test system: Cryptococcus neoformans A. 34144; settings: 4 to 48 hours; for Minimal inhibitory concentration (MIC): Cry. neoformans A. 34144, RPMI-1640, 35° C.; for Minimal inhibitory concentration(MIC), Cry. neoformans A. 34144: RPMI-1640, 35° C., no growth observed
In short: as §1

[15] = test system: Trichophyton mentagrophytes A. 9129; settings: 4 to 48 hours; for Minimal inhibitory concentration (MIC): T. mentagrophytes A. 9129, RPMI-1640, 35° C.; for Minimal inhibitory concentration(MIC), T. mentagrophytes A. 9129: RPMI-1640, 35° C., no growth observed
In short: as §1

Row | Compound | Minimal inhibitory concentration (MIC) [1] [µg/mL] | Minimal inhibitory concentration (MIC) [2] [µg/mL] | Minimal inhibitory concentration (MIC) [3] | Minimal inhibitory concentration (MIC) [4] [µg/mL] | Minimal inhibitory concentration (MIC) [11] [µg/mL] | Minimal inhibitory concentration(MIC), T. glabrata B. 16205 [1] [µg/mL] | Minimal inhibitory concentration(MIC), C. albicans IFO. 1385 [2] [µg/mL] | Minimal inhibitory concentration(MIC), Cry. neoformans IFM. 40092 [3] [µg/mL] | Minimal inhibitory concentration(MIC), C. albicans C1-2 [4] [µg/mL] | Minimal inhibitory concentration(MIC), A. niger A. 16404 [5] [µg/mL] | Minimal inhibitory concentration(MIC), T. mentagrophytes B. 32663 [6] [µg/mL] | Minimal inhibitory concentration(MIC), C. tropicalis A. 13803 [7] [µg/mL] | Minimal inhibitory concentration(MIC), Cry. neoformans B. 42419 [8] [µg/mL] | Minimal inhibitory concentration(MIC), C. pseudotropicalis K. 11658 [9] [µg/mL] | Minimal inhibitory concentration(MIC), C. krusei K. 11655 [10] [µg/mL] | Minimal inhibitory concentration(MIC), C. albicans A. 10231 [11] [µg/mL] | Minimal inhibitory concentration(MIC), C. parapsitosis A. 7330 [12] [µg/mL] | Minimal inhibitory concentration(MIC), A furnigatus B. 19119 [13] [µg/mL] | Minimal inhibitory concentration(MIC), Cry. neoformans A. 34144 [14] [µg/mL] | Minimal inhibitory concentration(MIC), T. mentagrophytes A. 9129 [15] [µg/mL] | other results
1 | FC(OCC1COC(Cn2ccnc2)(c2ccc(Cl)cc2Cl)O1)=C(c1ccc(F)cc1)C(F)(F)F (mixture of isomers) [Ex. 33] | 25.0 | 1.56 | 0.78 µg/mL | 12.5 | 6.25 | – | – | – | – | – | – | – | – | – | – | – | – | – | – | – | Minimal inhibitory concentration (MIC) [5]: 100 µg/mL; Minimal inhibitory concentration (MIC) [6]: 12.5 µg/mL; Minimal inhibitory concentration (MIC) [7]: 50.0 µg/mL; Minimal inhibitory concentration (MIC) [8]: 1.56 µg/mL; Minimal inhibitory concentration (MIC) [9]: 100 µg/mL; Minimal inhibitory concentration (MIC) [10]: 100 µg/mL; Minimal inhibitory concentration (MIC) [12]: >100 µg/mL; Minimal inhibitory concentration (MIC) [13]: 100 µg/mL; Minimal inhibitory concentration (MIC) [14]: 1.56 µg/mL; Minimal inhibitory concentration (MIC) [15]: 25.0 µg/mL
2 | CC(C)(C)c1ccc(C(=C(F)Oc2ccc(OCC3COC(Cn4ccnc4)(c4ccc(F)cc4F)O3)cc2)C(F)(F)F)cc1 (mixture of isomers) [Ex. 109] | – | – | – | – | – | 100 | 3.13 | 0.39 | 50.0 | >100 | 3.13 | >100 | 3.13 | >100 | >100 | 100 | >100 | >100 | 1.56 | 6.25 | –
3 | COc1cccc(C=C(F)Oc2ccc(OCC3COC(Cn4ccnc4)(c4ccc(Cl)cc4Cl)O3)cc2)c1 (mixture of isomers) [Ex. 90] | – | – | – | – | – | 100 | 12.5 | 0.78 | 100 | >100 | 50.0 | >100 | 6.25 | >100 | >100 | 100 | >100 | >100 | 12.5 | 50.0 | –
4 | FC(OCC1COC(Cn2ccnc2)(c2ccc(Cl)cc2Cl)O1)=C(c1cccc(F)c1)C(F)(F)F (mixture of isomers) [Ex. 32] | 12.5 | 0.78 | 0.39 µg/mL | 6.25 | 6.25 | – | – | – | – | – | – | – | – | – | – | – | – | – | – | – | Minimal inhibitory concentration (MIC) [5]: 100 µg/mL; Minimal inhibitory concentration (MIC) [6]: 6.25 µg/mL; Minimal inhibitory concentration (MIC) [7]: 25.0 µg/mL; Minimal inhibitory concentration (MIC) [8]: 1.56 µg/mL; Minimal inhibitory concentration (MIC) [9]: 100 µg/mL; Minimal inhibitory concentration (MIC) [10]: >100 µg/mL; Minimal inhibitory concentration (MIC) [12]: >100 µg/mL; Minimal inhibitory concentration (MIC) [13]: 50.0 µg/mL; Minimal inhibitory concentration (MIC) [14]: 0.78 µg/mL; Minimal inhibitory concentration (MIC) [15]: 12.5 µg/mL
5 | FC(OCC1COC(Cn2cncn2)(c2ccc(Cl)cc2Cl)O1)=C(c1ccccc1)C(F)(F)F (mixture of isomers) [Ex. 79] | – | – | – | >100 | >100 | >100 | >100 | 1.56 | – | >100 | >100 | >100 | >100 | >100 | >100 | – | >100 | >100 | >100 | >100 | –

More lines, main results first:

Row | Minimal inhibitory concentration (MIC) [1] [µg/mL] | Minimal inhibitory concentration (MIC) [2] [µg/mL] | Minimal inhibitory concentration (MIC) [3] | Minimal inhibitory concentration (MIC) [4] [µg/mL] | Minimal inhibitory concentration (MIC) [11] [µg/mL] | Minimal inhibitory concentration(MIC), T. glabrata B. 16205 [1] [µg/mL] | Minimal inhibitory concentration(MIC), C. albicans IFO. 1385 [2] [µg/mL] | Minimal inhibitory concentration(MIC), Cry. neoformans IFM. 40092 [3] [µg/mL] | Minimal inhibitory concentration(MIC), C. albicans C1-2 [4] [µg/mL] | Minimal inhibitory concentration(MIC), A. niger A. 16404 [5] [µg/mL] | Minimal inhibitory concentration(MIC), T. mentagrophytes B. 32663 [6] [µg/mL] | Minimal inhibitory concentration(MIC), C. tropicalis A. 13803 [7] [µg/mL] | Minimal inhibitory concentration(MIC), Cry. neoformans B. 42419 [8] [µg/mL] | Minimal inhibitory concentration(MIC), C. pseudotropicalis K. 11658 [9] [µg/mL] | Minimal inhibitory concentration(MIC), C. krusei K. 11655 [10] [µg/mL] | Minimal inhibitory concentration(MIC), C. albicans A. 10231 [11] [µg/mL] | Minimal inhibitory concentration(MIC), C. parapsitosis A. 7330 [12] [µg/mL] | Minimal inhibitory concentration(MIC), A furnigatus B. 19119 [13] [µg/mL] | Minimal inhibitory concentration(MIC), Cry. neoformans A. 34144 [14] [µg/mL] | Minimal inhibitory concentration(MIC), T. mentagrophytes A. 9129 [15] [µg/mL] | Compound | other results
6 | 12.5 | 0.20 | ≦0.10 μg/ml | 25.0 | 25.0 | – | – | – | – | – | – | – | – | – | – | – | – | – | – | – | FC(=Cc1ccc(F)cc1)OCC1COC(Cn2ccnc2)(c2ccc(F)cc2F)O1 (mixture of isomers) [Ex. 49] | Minimal inhibitory concentration (MIC) [5]: 6.25 µg/mL; Minimal inhibitory concentration (MIC) [6]: ≦0.10 μg/ml; Minimal inhibitory concentration (MIC) [7]: 50.0 µg/mL; Minimal inhibitory concentration (MIC) [8]: 0.78 µg/mL; Minimal inhibitory concentration (MIC) [9]: 12.5 µg/mL; Minimal inhibitory concentration (MIC) [10]: 25.0 µg/mL; Minimal inhibitory concentration (MIC) [12]: 25.0 µg/mL; Minimal inhibitory concentration (MIC) [13]: 1.56 µg/mL; Minimal inhibitory concentration (MIC) [14]: 0.78 µg/mL; Minimal inhibitory concentration (MIC) [15]: 0.39 µg/mL
7 | – | – | – | – | – | >100 | 25.0 | 0.39 | 100 | >100 | >100 | >100 | 1.56 | >100 | >100 | 100 | >100 | >100 | 1.56 | >100 | CCOc1ccc(C(=C(F)OCC2COC(Cn3cncn3)(c3ccc(Cl)cc3Cl)O2)C(F)(F)F)cc1 (mixture of isomers) [Ex. 85] | –
8 | – | – | – | – | – | >100 | 1.56 | 0.20 | >100 | >100 | 1.56 | >100 | 0.78 | 1.56 | 1.56 | >100 | 1.56 | >100 | 0.39 | 3.13 | FC(=C(c1ccc(F)cc1)C(F)(F)F)N1CCN(c2ccc(OCC3COC(Cn4ccnc4)(c4ccc(Cl)cc4Cl)O3)cc2)CC1 (mixture of isomers) [Ex. 135] | –
